Test results as given in patent US9341618B2, “Method for evaluating or screening hair growth-regulating agent” (Kao Corporation, priority 2007, dated 2016).
Like-named read-outs stand apart in the source and are kept apart here.

B1: TGF-β2: TGF-β2 (R & D Systems, Inc., item No. 102-B2-001/CF), confirmed to suppress hair growth in human hair follicle organ culture (protein, UniProt P61812 303-414, looked up)
Transforming growth factor …: ALDAAYCFRNVQDNCCLRPLYIDFKRDLGWKWIHEPKGYNANFCAGACPYLWSSDTQHSRVLSLYNTINPEASASPCCVSQDLEPLTILYYIGKTPKIEQLSNMIVKSCKCS

Assays:
hair follicles of a pig = conditions: DHT 10 ng/mL; for Hair elongation quantity (control regarded as 100%): 6th day of organ culture, William's E medium
Description: As a pig skin, a skin obtained from a crossbred pig with white hair which has been bred as a pork pig in Japan was used. The pig skin was cut into an appropriate size, the extra fat was cut away, and the resulting skin was soaked in a Hibiten solution (5% Hibiten solution (Sumitomo Pharmaceuticals) was diluted to 5 to 20 times with water) for 5 to 10 minutes under sterile conditions for sterilization and then washed several times with D-PBS.
Then hair follicles were isolated from the treated pig skin using forceps and scalpel (FEATHER No. 10) under a stereo microscope and collected in a medium.
According to the procedures (1), hair follicles of a pig were obtained from the dorsal region, lateral region, abdominal region, inguinal region, buttocks and shoulder of the pig. The isolated hair follicles were placed in a 24-well culture plate to give one hair follicle per well.
Incubation was carried out at 37° C. for 6 days in an incubator containing 5% of CO2.
The medium was exchanged every two days or every three days, and a hair elongation quantity after 6 days incubation was measured and compared with that of control.
For the control, William's E medium not containing DHT was used, and a hair elongation quantity after the organ culture was regarded as 100%.
Incidentally, a hair elongation quantity was measured, regarding the date on which incubation was commenced as the 0th day, by taking stereo microscopic images with a CCD camera (pixera model No. PVC 100C) at the 0th day and the 6th day, and measuring the change of the length from the base of hairbulb to the tip of hair shaft based on the images.

[1] = test system: hair follicles at the buttocks of a pig; assay: Organ culture of pig buttocks hair follicles in RPMI1640 medium (hair elongation); type: cell-based; conditions: TGF-β2 10 ng/mL, 8th day of organ culture in RPMI1640 medium
Description: The hair follicles were incubated at 37° C. for 8 days in an incubator containing 5% of CO2.

[2] = test system: hair follicles of a human; conditions: literature; cited from earlier work
[3] = abdominal region hair follicles

Row | Molecule | Growth of hair follicles, effect in words (hair follicles of a pig; [3]) | Hair elongation quantity (control regarded as 100%) (hair follicles of a pig; [3]) | Hair elongation quantity (control regarded as 100%) (hair follicles of a pig; buttocks hair follicles) | Growth of hair follicles, effect in words (hair follicles of a pig; dorsal region hair follicles) | Hair elongation quantity (control regarded as 100%) (hair follicles of a pig; dorsal region hair follicles) | Hair elongation quantity (control regarded as 100%) (hair follicles of a pig; inguinal region hair follicles) | Hair elongation quantity (control regarded as 100%) (hair follicles of a pig; lateral region hair follicles) | Hair elongation quantity (control regarded as 100%) (hair follicles of a pig; shoulder hair follicles) | Hair elongation rate (%) when that of control is regarded as 100% [1] | Effect on hair growth in organ culture [2]
1 | C[C@]12CCC(=O)C[C@@H]1CC[C@@H]1[C@@H]2CC[C@]2(C)[C@@H](O)CC[C@@H]12 [DHT, 5α-dihydrotestosterone] | suppressed | 75% | 102% | promoted | 179% | 102% | 108% | 99% | – | –
2 | B1 | – | – | – | – | – | – | – | – | 59% | confirmed to suppress hair growth
